Laboratory results published in patent US11957766B2, “HNQO1-activatable fluorescent probe for imaging cancer cells in-vitro and in-vivo” (Texas Tech University System, priority 2019, dated 2024).

How the values were obtained:
[1] = NIR-ASM tolerability and toxicity in vivo; set-up: species or system CD1 mice; conditions: 5 mg/kg five times a week for five weeks
Procedure: Assessment of NIR-ASM biocompatibility. Inspired by the excellent photophysical properties of NIR-ASM in monitoring the NQO1 activity in vitro, the inventors determined the biocompatibility of NIR-ASM both in vitro and in vivo before using for endogenous applications. […] Further, to evaluate NIR-ASM tolerability and toxicity in vivo, CD1 mice were grouped for the administration of vehicle (PEG:H2O:EtOH) alone or 5 mg/kg of NIR-ASM five times a week for five weeks. The average mouse weights were monitored as a surrogate marker to the toxicity.
Hematoxylin and eosin (H&E) staining. The hematoxylin and eosin staining were performed as described previously. Briefly, freshly dissected tissues were snap freeze and store at −20° C. for overnight. Frozen tissues were cut into […] slices, the sections were stained in Mayer's Hematoxylin and Eosin solution. Finally, the sections were dehydrated and mounted with Permount in a fume hood. The results were analyzed under a phase-contrast Olympus microscope (Olympus America Inc).

NQO1 = NQO1 (Homo sapiens, UniProt P15559); test: Selectivity of NIR-ASM for NQO1 over other enzymes/substrates; format: biochemical; set-up: purchased Sigma-Aldrich D1515; conditions: 30 min; GSH, ALDH1A1, GGT, GPx, APE1, CBS, CTSL, GST-pi, NADH, NTR
NQO1, sequence (P15559 whole entry): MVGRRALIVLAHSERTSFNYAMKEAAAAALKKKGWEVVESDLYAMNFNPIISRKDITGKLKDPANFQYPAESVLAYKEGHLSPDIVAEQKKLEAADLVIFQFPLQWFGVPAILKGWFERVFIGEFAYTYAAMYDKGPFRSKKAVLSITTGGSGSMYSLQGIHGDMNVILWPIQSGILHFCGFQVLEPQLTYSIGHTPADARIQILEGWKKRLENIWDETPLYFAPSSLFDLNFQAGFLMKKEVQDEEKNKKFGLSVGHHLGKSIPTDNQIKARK
Excerpt: Selectivity of NIR-ASM. The selectivity of NIR-ASM probe was studied by examining its reactivity towards various biomolecules and antioxidant enzymes such as the glutathione, aldehyde dehydrogenase 1, gamma-glutamyl transferase, glutathione peroxidase, apurinic/apyrimidinic endonuclease, cystathionine-β-synthase, cathepsin L, glutathione S-transferase, NADH alone and the combination of nitroreductase and NQO1.
Determination of NIR-ASM specificity towards NQO1. The specificity towards NQO1 was investigated by incubating NIR-ASM (10 μm) with various biologically relevant analytes such as glutathione (GSH, 1 mM), aldehyde dehydrogenase 1 (ALDH1A1, 2.5 μg/mL), gamma-glutamyl transferase (GGT, 10 U), glutathione peroxidase (GPx, 10 U), apurinic/apyrimidinic endonuclease (APE1, 10 U), cystathionine-β-synthase (CBS, 2 μg/mL), cathepsin L (CTSL, 2 μg/mL), glutathione S-transferase (GST-pi, 2 μg/mL), NADH (100 μM) alone and the combination of nitroreductase (NTR, 2 μg/mL) and NQO1 (2 μg/mL) for 30 min. Fluorescence spectra were analyzed to determine NIR-ASM specificity against NQO1.

[2] = tested on: NQO1-negative MDA-MB-231 cells; test: NIR-ASM in NQO1-negative control MDA-MB-231 cells; format: cell-based, human; conditions: microscopy and flow cytometry
Procedure: Chemical and genetic approaches confirm the specificity of NIR-ASM for NQO1 in live tumor cells. A fluorescence probe with high sensitivity, simple operation, and excellent specificity will be an asset for the detection of NQO1 in situ. To assess the substrate selectivity of NIR-ASM for NQO1, both A549 and H460 cells were pretreated with 100 nM of NQO1 inhibitor ES936 for 6 h, before incubating with 10 μM NIR-ASM. […] The effect of ES936 on endogenous NQO1 activity and subsequent reactivity with NIR-ASM was also determined by flow cytometry. […] The presence of NQO1 protein in the transfected MDA-MB-231 cells and its absence in the untransfected control was confirmed by immunoblotting (FIG. 13E). Subsequently, the NQO1-negative and positive MDA-MB-231 cell lines were incubated with NIR-ASM and analyzed by fluorescence microscopy and flow cytometry for activation of the probe.
Fluorescence imaging. Both cancer and normal cells were seeded into 6-well plates and cultured overnight in respective media at 37° C. […] Finally, the medium was replaced with PBS and the live cells were imaged using a multiphoton confocal fluorescence microscope (λex/em=488/644 nm). […]
Flow cytometry analysis. The endogenous NQO1 activity of cancer cells and normal cells was determined by flow cytometry after NIR-ASM exposure. […] About 1×10^4 cells were analyzed by flow cytometry (λex=488 nm).

[3] = tested on: normal (astrocytes) cells; test: Fluorescence microscopy of NQ-DCP in hNQO1 negative normal cells; format: cell-based; conditions: 10 μM, 60 min
Procedure: Visualization of Cancer Cells by Fluorescence Imaging of hNQO1. […] The cytotoxicity of NQ-DCP was initially evaluated in cultured brain tumor (DAOY, T98G, and U87MG) and normal (astrocytes) cells to assess its biocompatibility using the resazurin reduction assay. […] Cells were incubated with NQ-DCP (10 μM) for 60 min, washed with PBS and were imaged under a fluorescence microscope.
Cell Culture, Fluorescence Imaging, and Flow Cytometry Analysis. Brain tumor cells and astrocytes were grown in Dulbecco's modified Eagle's (DMEM) medium containing 10% Fetal Bovine Serum and 1% penicillin/streptomycin in a humidified atmosphere of 5% CO2 at 37° C. For fluorescence imaging, initially, cells were seeded into 6-well plate and cultured overnight in respective media at 37° C. Media was replaced with fresh medium containing 10 μM NQ-DCP and incubated at 37° C. for 60 min and then the medium was replaced with PBS and live cells were imaged using a fluorescence microscope. For inhibitor study, cells were pretreated with NQO1 inhibitor ES936 (100 nM) for 6 h before adding the NQ-DCP. For determining endogenous hNQO1 activity in cancer cells using flow cytometry, about 10×10^4 cells were incubated with 10 μM of NQ-DCP for 60 min and were analyzed using flow cytometry.

Row | selectivity for NQO1 over the other enzymes/substrates tested (NQO1) | SMILES | histological features (brain, heart, lung, liver, spleen, kidney; H&E) ([1]; versus control) | average body weights ([1]; versus vehicle) | fluorescence in control (NQO1-negative) cells [2] | fluorescence signal in normal cells [3]
1 | high selectivity | CC1=C(C)C(=O)C(C(C)(C)CC(=O)Nc2ccc(/C=C/C3=CC(=C(C#N)C#N)CC(C)(C)C3)cc2)=C(C)C1=O [NIR-ASM, (E)-N-(4-(2-(3-(dicyanomethylene)-5,5-dimethylcyclohex-1-en-1-yl)vinyl)phenyl)-3-methyl-3-(2,4,5-trimethyl-3,6-dioxocyclohexa-1,4-dien-1-yl)butanamide] | no significant differences | no remarkable changes | No fluorescence | 
2 |  | CC1=C(C)C(=O)C(C(C)(C)CC(=O)Oc2ccc(/C=C/C3=CC(=C(C#N)C#N)CC(C)(C)C3)cc2)=C(C)C1=O [NQ-DCP] |  |  |  | no signals were observed
